# Key:
# Assay type in all cases: functional
# [1] = tested on: LOX IMVI; assay: Growth inhibition of human LOXIMVI cells assessed as cell growth at 10^-7 M by sulforhodamine B assay; details: read-out: Activity
# [2] = tested on: SK-MEL-5; assay: Growth inhibition of human SK-MEL-5 cells assessed as cell growth at 10^-7 M by sulforhodamine B assay; details: read-out: Activity
# [3] = tested on: TK-10; assay: Growth inhibition of human TK10 cells by sulforhodamine B assay
# [4] = tested on: OVCAR-3; assay: Growth inhibition of human OVCAR3 cells by sulforhodamine B assay
# [5] = tested on: CCRF-CEM; assay: Growth inhibition of human CCRF-CEM cells assessed as cell growth at 10^-4 M by sulforhodamine B assay; details: read-out: Activity
# [6] = tested on: TK-10; assay: Growth inhibition of human TK10 cells assessed as cell growth at 10^-7 M by sulforhodamine B assay; details: read-out: Activity
# [7] = tested on: HT-29; assay: Growth inhibition of human HT-29 cells assessed as cell growth at 10^-4 M by sulforhodamine B assay; details: read-out: Activity
# [8] = tested on: HCT-116; assay: Growth inhibition of human HCT116 cells assessed as cell growth at 10^-6 M by sulforhodamine B assay; details: read-out: Activity
# [9] = Growth inhibition of human Hs 578T cells by sulforhodamine B assay
# [10] = tested on: UO-31; assay: Growth inhibition of human UO31 cells assessed as cell growth at 10^-7 M by sulforhodamine B assay; details: read-out: Activity
# [11] = tested on: U-251; assay: Growth inhibition of human U251 cells by sulforhodamine B assay
# [12] = tested on: OVCAR-4; assay: Growth inhibition of human OVCAR4 cells assessed as cell growth at 10^-7 M by sulforhodamine B assay; details: read-out: Activity
# [13] = tested on: A549; assay: Growth inhibition of human A549/ATCC cells assessed as cell growth at 10^-4 M by sulforhodamine B assay; details: read-out: Activity
# [14] = tested on: SF-268; assay: Growth inhibition of human SF268 cells assessed as cell growth at 10^-8 M by sulforhodamine B assay; details: read-out: Activity
# [15] = tested on: NCI-H522; assay: Growth inhibition of human NCI-H522 cells assessed as cell growth at 10^-7 M by sulforhodamine B assay; details: read-out: Activity
# [16] = tested on: K562; assay: Growth inhibition of human K562 cells assessed as cell growth at 10^-8 M by sulforhodamine B assay; details: read-out: Activity
# [17] = tested on: DU-145; assay: Growth inhibition of human DU145 cells assessed as cell growth at 10^-8 M by sulforhodamine B assay; details: read-out: Activity
# [18] = tested on: BT-549; assay: Growth inhibition of human BT549 cells by sulforhodamine B assay
# [19] = tested on: BT-549; assay: Growth inhibition of human BT549 cells assessed as cell growth at 10^-4 M by sulforhodamine B assay; details: read-out: Activity
# [20] = tested on: MDA-MB-435; assay: Growth inhibition of human MDA-MB-435 cells assessed as cell growth at 10^-8 M by sulforhodamine B assay; details: read-out: Activity
# [21] = tested on: A498; assay: Growth inhibition of human A498 cells assessed as cell growth at 10^-4 M by sulforhodamine B assay; details: read-out: Activity
# [22] = tested on: UACC-257; assay: Growth inhibition of human UACC257 cells assessed as cell growth at 10^-7 M by sulforhodamine B assay; details: read-out: Activity
# [23] = tested on: KM12; assay: Growth inhibition of human KM12 cells assessed as cell growth at 10^-4 M by sulforhodamine B assay; details: read-out: Activity
# [24] = tested on: 786-0; assay: Growth inhibition of human 786-0 cells assessed as cell growth at 10^-6 M by sulforhodamine B assay; details: read-out: Activity
# [25] = tested on: OVCAR-3; assay: Growth inhibition of human OVCAR3 cells assessed as cell growth at 10^-7 M by sulforhodamine B assay; details: read-out: Activity
# [26] = tested on: Malme-3M; assay: Growth inhibition of human MALME-3M cells assessed as cell growth at 10^-4 M by sulforhodamine B assay; details: read-out: Activity
# [27] = tested on: HT-29; assay: Growth inhibition of human HT-29 cells assessed as cell growth at 10^-8 M by sulforhodamine B assay; details: read-out: Activity
# [28] = Growth inhibition of human HCC2998 cells assessed as cell growth at 10^-7 M by sulforhodamine B assay; details: HCC 2998, read-out: Activity
# [29] = tested on: SK-OV-3; assay: Growth inhibition of human SKOV3 cells assessed as cell growth at 10^-8 M by sulforhodamine B assay; details: read-out: Activity
# [30] = tested on: SNB-75; assay: Growth inhibition of human SNB75 cells by sulforhodamine B assay
# [31] = tested on: HCT-116; assay: Growth inhibition of human HCT116 cells assessed as cell growth at 10^-8 M by sulforhodamine B assay; details: read-out: Activity
# [32] = tested on: KM12; assay: Growth inhibition of human KM12 cells assessed as cell growth at 10^-8 M by sulforhodamine B assay; details: read-out: Activity
# [33] = tested on: RXF 393; assay: Growth inhibition of human RXF393 cells assessed as cell growth at 10^-4 M by sulforhodamine B assay; details: read-out: Activity
# [34] = tested on: RPMI-8226; assay: Growth inhibition of human RPMI8226 cells by sulforhodamine B assay
# [35] = tested on: NCI-H322M; assay: Growth inhibition of human NCI-H322M cells assessed as cell growth at 10^-6 M by sulforhodamine B assay; details: read-out: Activity
# [36] = tested on: MDA-MB-435; assay: Growth inhibition of human MDA-MB-435 cells assessed as cell growth at 10^-7 M by sulforhodamine B assay; details: read-out: Activity
# [37] = tested on: OVCAR-5; assay: Growth inhibition of human OVCAR5 cells by sulforhodamine B assay
# [38] = tested on: ACHN; assay: Growth inhibition of human ACHN cells assessed as cell growth at 10^-6 M by sulforhodamine B assay; details: read-out: Activity
# [39] = tested on: MCF7; assay: Growth inhibition of human MCF7 cells by sulforhodamine B assay
# [40] = read-out: LC50 (the source's name)
# [41] = read-out: pLC50 (the source's name) (converted)
structure (smiles),measurement,setting,value
CC1(C)C[C@@H](O)[C@]2(C(=O)O)CC[C@]3(C)C(=CC[C@@H]4[C@@]5(C)C/C(=C\C=C\c6ccccc6)C(=O)C(C)(C)[C@@H]5CC[C@]43C)[C@@H]2C1,growth at 0.1 µM,[1],95%
same,growth at 0.1 µM,[2],95%
same,GI50,[3]; read-out: GI50,3.71 µM
same,CC50,[3]; [40],42.4 µM
same,TGI,[3]; read-out: TGI,12.8 µM
same,GI50,[3]; read-out: pGI50 (converted),3.72 µM
same,CC50,[3]; [41],42.7 µM
same,TGI,[3]; read-out: pTGI (converted),12.9 µM
same,GI50,[4]; read-out: GI50,2.04 µM
same,CC50,[4]; [40],14.2 µM
same,TGI,[4]; read-out: TGI,4.81 µM
same,GI50,[4]; read-out: pGI50 (converted),2.04 µM
same,CC50,[4]; [41],14.1 µM
same,TGI,[4]; read-out: pTGI (converted),4.79 µM
same,growth at 100 µM,[5],-19%
same,growth at 0.1 µM,[6],93%
same,growth at 100 µM,[7],-83%
same,growth at 1 µM,[8],90%
same,GI50,[9]; read-out: GI50,3.29 µM
same,CC50,[9]; [40],> 100 µM
same,TGI,[9]; read-out: TGI,20.6 µM
same,GI50,[9]; read-out: pGI50 (converted),3.31 µM
same,CC50,[9]; [41],> 100 µM
same,TGI,[9]; read-out: pTGI (converted),20.4 µM
same,growth at 0.1 µM,[10],94%
same,GI50,[11]; read-out: GI50,2.58 µM
same,CC50,[11]; [40],43.2 µM
same,TGI,[11]; read-out: TGI,10.1 µM
same,GI50,[11]; read-out: pGI50 (converted),2.57 µM
same,CC50,[11]; [41],43.7 µM
same,TGI,[11]; read-out: pTGI (converted),10.2 µM
same,growth at 0.1 µM,[12],96%
same,growth at 100 µM,[13],-63%
same,growth at 0.01 µM,[14],93%
same,growth at 0.1 µM,[15],94%
same,growth at 0.01 µM,[16],114%
same,growth at 0.01 µM,[17],106%
same,GI50,[18]; read-out: GI50,3.84 µM
same,CC50,[18]; [40],55.9 µM
same,TGI,[18]; read-out: TGI,14.8 µM
same,GI50,[18]; read-out: pGI50 (converted),3.8 µM
same,CC50,[18]; [41],56.2 µM
same,TGI,[18]; read-out: pTGI (converted),14.8 µM
same,growth at 100 µM,[19],-72%
same,growth at 0.01 µM,[20],98%
same,growth at 100 µM,[21],-97%
same,growth at 0.1 µM,[22],92%
same,growth at 100 µM,[23],-76%
same,growth at 1 µM,[24],96%
same,growth at 0.1 µM,[25],104%
same,growth at 100 µM,[26],-60%
same,growth at 0.01 µM,[27],104%
same,growth at 0.1 µM,[28],97%
same,growth at 0.01 µM,[29],96%
same,GI50,[30]; read-out: GI50,4.27 µM
same,CC50,[30]; [40],63.7 µM
same,TGI,[30]; read-out: TGI,20.9 µM
same,GI50,[30]; read-out: pGI50 (converted),4.27 µM
same,CC50,[30]; [41],63.1 µM
same,TGI,[30]; read-out: pTGI (converted),20.9 µM
same,growth at 0.01 µM,[31],100%
same,growth at 0.01 µM,[32],101%
same,growth at 100 µM,[33],-92%
same,GI50,[34]; read-out: GI50,2.58 µM
same,CC50,[34]; [40],> 100 µM
same,TGI,[34]; read-out: TGI,7.96 µM
same,GI50,[34]; read-out: pGI50 (converted),2.57 µM
same,CC50,[34]; [41],> 100 µM
same,TGI,[34]; read-out: pTGI (converted),7.94 µM
same,growth at 1 µM,[35],94%
same,growth at 0.1 µM,[36],96%
same,GI50,[37]; read-out: GI50,2.97 µM
same,CC50,[37]; [40],33.6 µM
same,TGI,[37]; read-out: TGI,10.5 µM
same,GI50,[37]; read-out: pGI50 (converted),2.95 µM
same,CC50,[37]; [41],33.9 µM
same,TGI,[37]; read-out: pTGI (converted),10.5 µM
same,growth at 1 µM,[38],97%
same,GI50,[39]; read-out: GI50,3.23 µM
same,CC50,[39]; [40],56.9 µM
same,TGI,[39]; read-out: TGI,12.3 µM
same,GI50,[39]; read-out: pGI50 (converted),3.24 µM
same,CC50,[39]; [41],57.5 µM
same,TGI,[39]; read-out: pTGI (converted),12.3 µM
